This passage reports EC50 results from ChEMBL document CHEMBL1148909, “Antineoplastic agents. 535. Isolation and structure of plakorstatins 1 and 2 from the Indo-Pacific sponge Plakortis nigra” (2004).

In brackets after ≈: the same amount, converted by molar mass.

This assay deals with P388. The experiment in a line: Growth inhibition of mouse P388 cells. It is filed as functional. Conditions: read-out: ED50 (the source's name).

`CC/C(=C\[C@@]1(CC)C[C@H](CC)[C@H](CC(=O)OC)OO1)[C@@H]1O[C@@H]1CC` (single isomer, unassigned) [PLAKORSTATIN 2]: the EC50 turned out to be 0.91 µg/mL (≈ 2.67 µM). The result for `CC/C(=C\[C@@]1(CC)C[C@H](CC)[C@H](CC(=O)OC)OO1)[C@H]1O[C@H]1CC` (single isomer, unassigned) [PLAKORSTATIN 1] reads 1.1 µg/mL (≈ 3.23 µM).
